Data published in patent publication US8735149B2, “Motor neurons developed from stem cells” (Hadasit Medical Research Services & Development Limited, priority 2008, dated 2014).

Columns and labels:
Type in all cases: cell-based, human
[1] = test system: hESC-derived neural progenitors with caudal and ventral specification; test: Terminal motor neuron differentiation of plated spheres in the presence of DAPT (HB9, CHAT immunostaining)
Experimental: (§1) The spheres were then further cultured in the same neurobasal medium supplemented with 2 mM L-glutamine, 50 units/ml penicillin, 50 μg/ml streptomycin, 1% non-essential amino-acids, 1% N2 (all from Invitrogen), 1 μM db-cAMP and 10 ng/ml of BDNF, GDNF and IGF-I (all from Peprotech). This medium was designated as motor neuron medium (MNM). The clusters could be cultured in suspension in this medium for prolonged periods (5 months). At various time points along this period the cells were plated on 10 μg/ml Poly-D-Lysine (Sigma) and 5 μg/ml laminin (Sigma) for terminal differentiation in the presence or absence of the γ-secretase inhibitor [N-(3,5-Difluorophenacetyl)-L-alanyl]-S-phenylglycine t-butyl ester (DAPT; 1 μM, Sigma).
(§2) The following primary antibodies were used: polyclonal rabbit anti Isl1 (1:750, Abeam), mouse anti HB9 (1:50, DSHB), polyclonal goat anti CHAT (1:200, R&D), and goat anti olig2 (1:75, R&D).
(§3) The following secondary antibodies: goat anti-rabbit conjugated to Cy-3 (1:1000, Jackson), goat anti-mouse conjugated to Cy-3 (1:500, Jackson), donkey anti goat conjugated to rhodamin (1:300, Jackson), Texas red or Alexa 488-conjugated goat anti-mouse IgM (1:100, Jackson), goat anti-rabbit IgG (1:100, Molecular Probes), goat anti-mouse IgG (1:100, Molecular Probes) or donkey anti-goat IgG (1:250, Jackson) were used as secondary antibodies, where appropriate.
To further enhance the motor neuron differentiation, caudalization and ventralization were followed by blocking Notch signaling with the γ-secretase inhibitor DAPT. After 2-3 weeks of maturation in MNM, the spheres were plated on laminin and terminally differentiated in the presence of DAPT for 7-10 days.

[2] = test system: hESC-derived neural precursors; test: RT-PCR of Olig2, Ngn2 and HB9 transcripts after early neural induction and 2-3 weeks treatment
Experimental: (§4) To develop spheres enriched for neural precursors, hESC colonies were removed intact from the feeders, 6 days after passage, with collagenase IV. They were cultured in low adherent culture dishes (HydroCell) in DMEM/F12 (1:1) basal medium (Invitrogen), supplemented with 2% B27, 2 mM glutamine, 50 units/ml penicillin, 50 μg/ml streptomycin (all from Invitrogen), and 20 ng/ml rh-FGF-2 (Peprotech). In some experiments the medium was also supplemented with noggin 600-700 ng/ml (both from R&D) for 14-16 days.
The medium was further supplemented with 1 μM retinoic acid (“RA”; Sigma) or 0.5 μM purmorphamine (“Pur”; a hedgehog agonist; Merck), or combination of Pur and RA, for 3 weeks.
Total RNA was extracted from free-floating clusters after 2 and 3 weeks of treatment with RA, Pur or both. Total RNA was isolated using TRI-reagent (Sigma) followed by treatment with RNase-free DNase (Ambion). cDNA synthesis was carried out using Moloney murine leukemia virus (M-MLV) reverse transcriptase and random primers, according to the manufacturers' instructions (Promega). To analyze relative expression of different mRNAs, the amount of cDNA was normalized based on the signal from GAPDH mRNA. PCR was carried out using standard protocols with Taq DNA Polymerase (Promega). Amplification conditions were as follows: denaturation at 94° C. for 30 seconds, annealing at 55° C. for 30 seconds, and extension at 72° C. for 45 seconds. The number of cycles varied between 30 and 40, depending on particular mRNA abundance. Primer sequences (forward and reverse 5′-3′) were as shown in Table 1 (sequence identification number (SEQ ID NO.) according to the Sequence Listing is also provided):
Following this initial induction of early neural differentiation, the role of purmorphamine (Pur) and retinoic acid (RA) in further specification towards a caudal and ventral fate was examined. The neural precursors were further cultured 2-3 weeks with Pur, RA, or the combination of RA & Pur as well as with FGF2 as a control. Caudalization and ventralization were studied by analyzing the expression of Olig-2, Ngn2 and HB9 transcripts (FIGS. 2A, 2B and 2C). […] Without being bound by theory, induction of expression of these transcription factors by RA after 3 weeks (lane 6 in FIGS. 2A and 2C) may be related to RA-mediated induction of endogenous SHH gene expression.

[3] = test system: hESC-derived neural precursors; test: Immunostaining for HB9 after 1 week RA, 3 weeks treatment and 4-6 weeks maturation in MNM; details: RA 1 week, then 3 weeks treatment, then maturation 4-6 weeks in MNM
Experimental: (§5) Alternatively, the spheres were cultured in the same medium supplemented with 1 μM RA (Sigma) for 1 week. Followed by further culturing the spheres in neurobasal medium (Invitrogen) supplemented with 2 mM L-glutamine (Invitrogen), 50 units/ml penicillin (Invitrogen), 50 μg/ml streptomycin (Invitrogen), 1% non-essential amino-acids (Invitrogen), N2 (Invitrogen), 1 μM db-cAMP (Sigma) and 1 μM RA (Sigma), or 0.5 μM Pur (Merck), or combination of RA and Pur, for 2-3 weeks.
as §1
The following primary antibodies were used: polyclonal rabbit anti Isl1 (1:750, Abeam), mouse anti HB9 (1:50, DSHB), polyclonal goat anti CHAT (1:200, R&D), and goat anti olig2 (1:75, R&D). […]

[4] = test system: hESC-derived neural precursors; test: Immunostaining for Olig-2 and Isl-1 after early neural induction and 3 weeks treatment; details: treatment for 3 weeks
Experimental: To develop spheres enriched for neural precursors, hESC colonies were removed intact from the feeders, 6 days after passage, with collagenase IV. They were cultured in low adherent culture dishes (HydroCell) in DMEM/F12 (1:1) basal medium (Invitrogen), supplemented with 2% B27, 2 mM glutamine, 50 units/ml penicillin, 50 μg/ml streptomycin (all from Invitrogen), and 20 ng/ml rh-FGF-2 (Peprotech). In some experiments the medium was also supplemented with noggin 600-700 ng/ml (both from R&D) for 14-16 days. […] The medium was further supplemented with 1 μM retinoic acid (“RA”; Sigma) or 0.5 μM purmorphamine (“Pur”; a hedgehog agonist; Merck), or combination of Pur and RA, for 3 weeks. The following primary antibodies were used: polyclonal rabbit anti Isl1 (1:750, Abeam), mouse anti HB9 (1:50, DSHB), polyclonal goat anti CHAT (1:200, R&D), and goat anti olig2 (1:75, R&D). The following secondary antibodies: goat anti-rabbit conjugated to Cy-3 (1:1000, Jackson), goat anti-mouse conjugated to Cy-3 (1:500, Jackson), donkey anti goat conjugated to rhodamin (1:300, Jackson), Texas red or Alexa 488-conjugated goat anti-mouse IgM (1:100, Jackson), goat anti-rabbit IgG (1:100, Molecular Probes), goat anti-mouse IgG (1:100, Molecular Probes) or donkey anti-goat IgG (1:250, Jackson) were used as secondary antibodies, where appropriate.

[5] = test system: hESC clusters; test: Early neural induction of hESC clusters (PSA-NCAM expression); details: chemically defined medium with FGF2 with or without noggin, two weeks
Experimental: as §4
To induce the differentiation of hESCs towards motor neurons, hESC clusters were initially cultured in chemically defined medium supplemented with FGF2 with or without noggin for two weeks. At the end of this culture period the clusters acquired round morphology typical of neural spheres.

[6] = test system: hESC-derived neural spheres; test: Olig-2, HB9 and CHAT expression after caudalization, ventralization and maturation in MNM
Experimental: as §5, §1, §2, §3
In a similar set of experiments, after initial early neural induction in the presence of FGF2, the spheres were induced to take a caudal fate by 7 days treatment with RA. […]

[7] = DAPT 1 μM for 7-10 days after 2-3 weeks maturation in MNM, plated on laminin
[8] = RA 7 days, Pur with or without RA 2-3 weeks, 4 weeks maturation in MNM, plated on laminin, no DAPT

Compound: C[C@H](NC(=O)Cc1cc(F)cc(F)c1)C(=O)N[C@H](C(=O)OC(C)(C)C)c1ccccc1 [DAPT, [N-(3,5-Difluorophenacetyl)-L-alanyl]-S-phenylglycine t-butyl ester]
- increase of percentage of HB9+ cells [1, 7]: 1.5-2 folds
- percentage of HB9+ cells [1, 7]: 40-70 % of total cells
- neurite outgrowth and branching from CHAT expressing cells ([1]; DAPT during terminal differentiation): significantly augmented

Compound: FGF2: basic fibroblast growth factor, used for early neural induction and as control treatment
- expression of HB9 transcripts ([2]; after 2 weeks of treatment): did not induce the expression
- expression of Ngn2 transcripts ([2]; after 2 weeks of treatment): did not induce the expression
- expression of Olig-2 transcripts ([2]; after 2 weeks of treatment): did not induce the expression
- expression of HB9 transcripts ([2]; after 3 weeks of treatment): did not induce the expression
- expression of Ngn2 transcripts ([2]; after 3 weeks of treatment): did not induce the expression
- expression of Olig-2 transcripts ([2]; after 3 weeks of treatment): did not induce the expression
- cells expressing HB9 protein [3]: not expressed
- cells expressing Isl-1 [4]: not expressed
- cells expressing Olig-2 [4]: did not induce the expression
- neural precursor cells expressing PSA-NCAM within the clusters [5]: highly enriched

Compound: c1ccc2c(Oc3nc(Nc4ccc(N5CCOCC5)cc4)c4ncn(C5CCCCC5)c4n3)cccc2c1 [Pur, purmorphamine]
- cells within the spheres expressing Olig-2 ([6]; 7 days RA, then Pur in the presence or absence of RA for 2-3 weeks): 23-54 % of the cells
- cells expressing CHAT [6, 8]: 20-50 % of the cells
- cells expressing HB9 [6, 8]: 20-50 % of the cells
- expression of HB9 transcripts ([2]; after 2 weeks of treatment): induced the expression
- expression of Olig-2 transcripts ([2]; after 2 weeks of treatment): induced the expression
- expression of HB9 transcripts ([2]; after 3 weeks of treatment): induced the expression
- expression of Olig-2 transcripts ([2]; after 3 weeks of treatment): induced the expression
- cells expressing HB9 protein [3]: 66 % of total cells
